According to ChEMBL document CHEMBL1949599, “Three novel cyclic hexapeptides from Streptomyces alboflavus 313 and their antibacterial activity” (2012):
Values after ≈ are worked out from the molar mass of the structure shown.

How the values were obtained:
Format in all cases: functional
Pseudomonas aeruginosa = experiment: Antibacterial activity against Pseudomonas aeruginosa CGMCC 1.2031 after 24 hrs by micro-broth dilution method; conditions: CGMCC 1.2031, 24 h
Bacillus subtilis = experiment: Antibacterial activity against Bacillus subtilis CGMCC 1.88 after 24 hrs by micro-broth dilution method; conditions: CGMCC 1.88, 24 h
Escherichia coli = experiment: Antibacterial activity against Escherichia coli CGMCC 1.1574 after 24 hrs by micro-broth dilution method; conditions: CGMCC 1.1574, 24 h
Bacillus cereus = experiment: Antibacterial activity against Bacillus cereus CGMCC 1.1846 after 24 hrs by micro-broth dilution method; conditions: CGMCC 1.1846, 24 h
Staphylococcus aureus [1] = experiment: Antibacterial activity against Staphylococcus aureus CGMCC 1.89 after 24 hrs by micro-broth dilution method; conditions: CGMCC 1.89, 24 h
Staphylococcus aureus [2] = experiment: Antibacterial activity against methicillin-resistant Staphylococcus aureus after 24 hrs by micro-broth dilution method

Structure (SMILES)	MIC (Pseudomonas aeruginosa) [µg/mL]	MIC (Bacillus subtilis) [µg/mL]	MIC (Escherichia coli) [µg/mL]	MIC (Bacillus cereus) [µg/mL]	MIC (Staphylococcus aureus [1]) [µg/mL]	MIC (Staphylococcus aureus [2]) [µg/mL]
CC(C)[C@@H]1NC(=O)[C@@H]2C[C@@]3(O)c4ccc(Cl)cc4N[C@H]3N2C(=O)[C@H]2CCCNN2C(=O)[C@@H](C)N(C)C(=O)[C@H]2CCCNN2C(=O)[C@@H]2CCCNN2C1=O	> 100	12.5 (≈ 16.5 µM)	> 100	12.5 (≈ 16.5 µM)	6.25 (≈ 8.25 µM)	6.25 (≈ 8.25 µM)
CC(C)[C@H]1NC(=O)[C@@H]2C[C@@]3(O)c4ccc(Cl)cc4N[C@H]3N2C(=O)[C@H]2CCCNN2C(=O)[C@@H](C)NC(=O)[C@H]2CCCNN2C(=O)[C@@H]2CCCNN2C1=O	> 100	> 100	> 100	> 100	> 100	> 100
COC1=CC2C(=O)N(C)[C@@H](C)C(=O)N3NCCC[C@@H]3C(=O)N3[C@@H](C[C@@]4(O)c5ccc(Cl)cc5N[C@@H]34)C(=O)N[C@H](C(C)C)C(=O)N3NCCC[C@@H]3C(=O)N2N=C1 (stereo not given in full)	> 100	3.13 (≈ 4 µM)	> 100	3.13 (≈ 4 µM)	1.56 (≈ 1.99 µM)	1.56 (≈ 1.99 µM)
COC1C=NN2C(=O)[C@H]3CCCNN3C(=O)[C@@H](C(C)C)NC(=O)[C@@H]3C[C@@]4(O)c5ccc(Cl)cc5N[C@H]4N3C(=O)[C@H]3CCCNN3C(=O)[C@H](C)N(C)C(=O)C2C1 (stereo not given in full)	> 100	25 (≈ 31.8 µM)	> 100	25 (≈ 31.8 µM)	25 (≈ 31.8 µM)	25 (≈ 31.8 µM)
CC1(C)S[C@@H]2[C@H](NC(=O)[C@H](N)c3ccccc3)C(=O)N2[C@H]1C(=O)[O-].[Na+] [AMPICILLIN SODIUM]	> 100	1.56	3.13	6.25	6.25	> 100
